Experimental data published in US20100226931A1, “Compounds for immunopotentiation” (priority 2004, published 2010).

melting point: 220 to 222 °C
Compound: Clc1ccc(Nc2nnc(Cc3ccncc3)c3ncccc23)cc1
